Consider 16 molecules from patent US6544768B1, “Mammalian soluble adenylyl cyclase” (Cornell Research Foundation, Inc., priority 1999, dated 2003).

Experiment [1] addresses T1, truncated form of sAC (Rattus norvegicus, UniProt Q9Z286).
T1 construct: sACt, amino acids 1-469
T1 sequence (Q9Z286 1-469): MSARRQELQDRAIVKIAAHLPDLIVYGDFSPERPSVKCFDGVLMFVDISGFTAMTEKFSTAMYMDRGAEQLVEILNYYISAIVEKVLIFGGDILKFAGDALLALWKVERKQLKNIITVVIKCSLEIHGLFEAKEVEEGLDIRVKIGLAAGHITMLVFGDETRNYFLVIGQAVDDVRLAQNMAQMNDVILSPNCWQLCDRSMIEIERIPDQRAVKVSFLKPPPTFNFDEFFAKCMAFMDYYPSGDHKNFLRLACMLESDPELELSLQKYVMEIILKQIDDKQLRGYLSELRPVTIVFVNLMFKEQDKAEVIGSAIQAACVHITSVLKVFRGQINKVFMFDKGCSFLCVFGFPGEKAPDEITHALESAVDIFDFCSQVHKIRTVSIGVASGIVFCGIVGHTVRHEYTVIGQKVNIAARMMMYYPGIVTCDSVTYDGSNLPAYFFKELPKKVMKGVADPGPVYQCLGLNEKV
Put plainly: P site ligand test on truncated sAC. It is filed as biochemical. An excerpt: (3) P site ligands and inhibitors of other ATP-utilizing enzymes.

Experiment [2] has as its system sAC. Put plainly: Soluble adenylyl cyclase activity in cytosolic extracts from rat testis. The settings on record: read-out: Km for ATP; in the presence of MnCl2.
Experiment [3] deals with tmACs. The settings on record: read-out: Km of tmACs for substrate ATP; cited from earlier work.
Experiment [4] deals with sAC. The settings on record: read-out: Km of sAC for substrate ATP; cited from earlier work.
Experiment [5] concerns the target T2, full-length and truncated forms of sAC (Rattus norvegicus, UniProt Q9Z286).
T2 construct: we heterologously expressed the full-length cDNA in HEK293 cells; expressed in transfected cells; host or cells: HEK293, transient, pBK-CMV
Kind of experiment: Adenylyl cyclase assay in whole-cell sonicates from sAC-transfected HEK293 cells. In kind it is biochemical. The following applies: both full-length and truncated forms. An excerpt: Heterologous Expression. To confirm that the gene we isolated encoded an adenylyl cyclase, we heterologously expressed the full-length cDNA in HEK293 cells. The full-length and truncated sAC cDNAs were expressed from the library vector (pBK-CMV) under the control of the cytomegalovirus promoter after deletion of the intervening bacterial promoter sequences (as an NheI-SpeI fragment). The truncated sAC cDNA (sACt) represented a library clone that was missing an exon. The resultant protein shifted the reading frame after valine 469 (FIG. 1; underline), introducing two incorrect amino acids (serine and cysteine) followed by a stop codon. Expression constructs were transiently introduced into HEK293 by lipofectamine—mediated transfection (Life Technologies, Grand Island, N.Y.). One or two days after transfection, cells were harvested, resuspended in lysis buffer (50 mM Tris-HCl, pH 7.5/1 mM EDTA/1 mM DTT/0.1 mg/ml Leupeptin/1 mM phenylmethylsulfonyl fluoride) and disrupted by microtip probe sonication on ice. Whole-cell sonicates were ultramicrocentrifuged at >100,000×g for 10 minutes. Supernatants were cleared by a second centrifugation to yield ‘cytosolic’ extracts. Pellets were resuspended in lysis buffer by passage through a 27.5-gauge needle to generate ‘particulate fraction. […]

The target of experiment [6] is T3, Purified recombinant sACt protein (Rattus norvegicus, UniProt Q9Z286).
T3 construct: sACt, amino acids 1-469, plus a C-terminal Hexahistidine tag; Hexahistidine (C); made in house; host or cells: insect HiFive cells (baculovirus, Bac-to-Bac)
T3 sequence (Q9Z286 1-469): T1 sequence (Q9Z286 1-469)
Put plainly: In vitro adenylyl cyclase assay with purified recombinant sACt. In kind it is biochemical. The following applies: for % Basal (adenylyl cyclase activity relative to activity in the absence of any salts): salts at 50 mM. The method, then:
(§1) The cell lines were starved for bicarbonate (grown in HEPES-bufferred, NaHCO3-free D-MEM under ambient CO2) for 24 hours. Cellular cAMP accumulation and in vitro adenylyl cyclase activity in the presence of [a^32P] ATP and MnCl2 or MgCl2 were assayed. In vitro adenylyl cyclase assays were performed at pH 7.5 in Tris-buffered solutions.
Kinetic parameters were determined using KinetAsyst II (IntelliKinetics).

In experiment [7] the test system is soluble adenylyl cyclase. The settings on record: cited from earlier work.
Experiment [8] relates to sAC. Put plainly: Adenylyl cyclase activity in anti-sAC immunoprecipitates from rat testis cytosol. It is filed as biochemical. The settings on record: 40 mM NaHCO3 or 100 μM Forskolin. On the procedure:
Rat testis were tested for sAC activity by immunoassay. Immunoprecipitates from rat testis cytosol were tested using either pre-immune serum or α-sAC antisera. […]. […]. Data in FIG. 4b are presented as pmol of cAMP formed over 20 minutes, and values represent averages of duplicate determinations with standard deviations indicated.

Experiment [9] has as its target T4, Spirulina platensis CyaC (Limnospira platensis, UniProt O32393). Put plainly: biochemical.
Experiment [10] concerns the target sACfl (Rattus norvegicus, UniProt Q9Z286). On the procedure:
as §1

The test system of experiment [11] is HEK293/V cells, which express endogenous tmACs. The following applies: for Cellular cAMP accumulation in HEK293/V: vector transfected cells. On the procedure:
as §1
Among mammalian adenylyl cyclases, sAC appears to be the only form regulated by bicarbonate ions.
On the technique in general: cAMP levels reflect the balance of adenylyl cyclase and phosphodiesterase activity.

Experiment [12] concerns the target T4, Spirulina platensis CyaC. The settings on record: 0-60 mM NaHCO3, 100 μM ATP, 5 mM MnCl2.
Experiment [13] concerns sAC. Kind of experiment: Ecdysone inducible sAC expression in transiently transfected NIH3T3 cells. In kind it is cell-based. The settings on record: transient transfection. An excerpt:
The commercially available (Invitrogen) ecdysone inducible system (No, D. et al., PNAS, 1996, 93:3346-3351) is based on an insect hormone regulated transcriptional activator, the ecdysone receptor (EcR). This system takes advantage of the specificity of EcR for its own response element, and the lack of any cross-reactivity by any mammalian transcription factor. We stably introduced both the EcR and its requisite partner, Retinoid X Receptor (RXR) into NIH3T3 cells. Additionally, to confirm the efficacy of this expression system, we performed pilot experiments with 3T3 cells transiently transfected with both plasmids. […] This induction was overcome by co-expression of sAC antisense (αsAA). The sequence was the entire sAC truncated (sAC trunc) sequence cloned in reverse orientation with respect to the promoter. The coding sequence for sAC trunc was approximately 1 through 1710 and the antisense was nucleotides 1710 through 1. For the antisense experiment, we transiently transfected three plasmids into NIH3T3 cells: 1) Ecdysone receptor/RXR expression plasmid; 2) sAC trunc expression plasmid (driven by ecdysone promoter) and 3) antisense expression plasmid (driven by ecdysone promoter).

Experiment [14] deals with sAC as co-expressed with mammalian CAP. Put plainly: cell-based or functional assay.
Experiment [15] has as its target T5, sAC (Rattus norvegicus, UniProt Q9Z286).
T5 construct: expressed in transfected cells
Put plainly: Co-expression of mammalian CAP with sAC.

Read-outs that look alike come from different tables or passages of the source.

Chain of sACfl (Q9Z286 whole entry): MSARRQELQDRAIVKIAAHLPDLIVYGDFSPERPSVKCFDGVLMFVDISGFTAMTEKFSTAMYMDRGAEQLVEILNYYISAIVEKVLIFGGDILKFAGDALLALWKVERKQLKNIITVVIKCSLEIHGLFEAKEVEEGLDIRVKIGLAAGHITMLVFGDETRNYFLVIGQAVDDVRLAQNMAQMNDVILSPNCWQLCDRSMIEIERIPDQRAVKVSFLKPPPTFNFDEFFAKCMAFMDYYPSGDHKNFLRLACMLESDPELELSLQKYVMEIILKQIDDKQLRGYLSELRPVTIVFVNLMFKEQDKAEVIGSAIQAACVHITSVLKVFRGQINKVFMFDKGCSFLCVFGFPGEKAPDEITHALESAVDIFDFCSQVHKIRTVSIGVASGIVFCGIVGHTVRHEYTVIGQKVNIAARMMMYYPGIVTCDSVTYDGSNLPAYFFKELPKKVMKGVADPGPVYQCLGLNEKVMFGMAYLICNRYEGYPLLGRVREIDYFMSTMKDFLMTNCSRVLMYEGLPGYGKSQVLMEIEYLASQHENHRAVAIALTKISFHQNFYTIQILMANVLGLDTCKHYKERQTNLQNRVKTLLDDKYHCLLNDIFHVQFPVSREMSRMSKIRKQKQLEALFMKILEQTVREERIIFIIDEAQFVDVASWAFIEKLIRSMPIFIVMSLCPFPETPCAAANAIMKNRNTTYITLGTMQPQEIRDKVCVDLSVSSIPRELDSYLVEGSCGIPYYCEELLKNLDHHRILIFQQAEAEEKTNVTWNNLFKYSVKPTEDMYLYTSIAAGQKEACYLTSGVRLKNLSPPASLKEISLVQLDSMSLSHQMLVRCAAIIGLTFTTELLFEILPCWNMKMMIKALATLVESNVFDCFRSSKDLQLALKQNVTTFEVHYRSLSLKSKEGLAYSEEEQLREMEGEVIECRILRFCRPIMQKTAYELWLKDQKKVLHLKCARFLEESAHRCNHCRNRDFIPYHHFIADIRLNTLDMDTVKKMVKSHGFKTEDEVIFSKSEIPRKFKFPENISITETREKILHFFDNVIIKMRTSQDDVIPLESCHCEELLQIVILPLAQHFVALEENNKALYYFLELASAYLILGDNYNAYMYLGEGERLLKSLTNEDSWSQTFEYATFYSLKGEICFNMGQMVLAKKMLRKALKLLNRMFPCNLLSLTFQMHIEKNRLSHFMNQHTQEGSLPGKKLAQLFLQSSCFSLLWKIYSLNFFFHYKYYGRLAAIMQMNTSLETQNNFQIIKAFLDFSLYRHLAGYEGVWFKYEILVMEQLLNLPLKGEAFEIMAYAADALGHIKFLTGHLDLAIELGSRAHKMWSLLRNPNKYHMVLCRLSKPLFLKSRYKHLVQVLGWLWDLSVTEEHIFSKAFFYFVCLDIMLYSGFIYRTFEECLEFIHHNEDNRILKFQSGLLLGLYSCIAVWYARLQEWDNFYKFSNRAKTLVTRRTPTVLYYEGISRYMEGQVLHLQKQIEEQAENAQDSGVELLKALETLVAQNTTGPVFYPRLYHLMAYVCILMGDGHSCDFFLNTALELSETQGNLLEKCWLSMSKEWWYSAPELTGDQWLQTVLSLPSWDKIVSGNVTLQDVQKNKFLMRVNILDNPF
T4 sequence (O32393 1-1202): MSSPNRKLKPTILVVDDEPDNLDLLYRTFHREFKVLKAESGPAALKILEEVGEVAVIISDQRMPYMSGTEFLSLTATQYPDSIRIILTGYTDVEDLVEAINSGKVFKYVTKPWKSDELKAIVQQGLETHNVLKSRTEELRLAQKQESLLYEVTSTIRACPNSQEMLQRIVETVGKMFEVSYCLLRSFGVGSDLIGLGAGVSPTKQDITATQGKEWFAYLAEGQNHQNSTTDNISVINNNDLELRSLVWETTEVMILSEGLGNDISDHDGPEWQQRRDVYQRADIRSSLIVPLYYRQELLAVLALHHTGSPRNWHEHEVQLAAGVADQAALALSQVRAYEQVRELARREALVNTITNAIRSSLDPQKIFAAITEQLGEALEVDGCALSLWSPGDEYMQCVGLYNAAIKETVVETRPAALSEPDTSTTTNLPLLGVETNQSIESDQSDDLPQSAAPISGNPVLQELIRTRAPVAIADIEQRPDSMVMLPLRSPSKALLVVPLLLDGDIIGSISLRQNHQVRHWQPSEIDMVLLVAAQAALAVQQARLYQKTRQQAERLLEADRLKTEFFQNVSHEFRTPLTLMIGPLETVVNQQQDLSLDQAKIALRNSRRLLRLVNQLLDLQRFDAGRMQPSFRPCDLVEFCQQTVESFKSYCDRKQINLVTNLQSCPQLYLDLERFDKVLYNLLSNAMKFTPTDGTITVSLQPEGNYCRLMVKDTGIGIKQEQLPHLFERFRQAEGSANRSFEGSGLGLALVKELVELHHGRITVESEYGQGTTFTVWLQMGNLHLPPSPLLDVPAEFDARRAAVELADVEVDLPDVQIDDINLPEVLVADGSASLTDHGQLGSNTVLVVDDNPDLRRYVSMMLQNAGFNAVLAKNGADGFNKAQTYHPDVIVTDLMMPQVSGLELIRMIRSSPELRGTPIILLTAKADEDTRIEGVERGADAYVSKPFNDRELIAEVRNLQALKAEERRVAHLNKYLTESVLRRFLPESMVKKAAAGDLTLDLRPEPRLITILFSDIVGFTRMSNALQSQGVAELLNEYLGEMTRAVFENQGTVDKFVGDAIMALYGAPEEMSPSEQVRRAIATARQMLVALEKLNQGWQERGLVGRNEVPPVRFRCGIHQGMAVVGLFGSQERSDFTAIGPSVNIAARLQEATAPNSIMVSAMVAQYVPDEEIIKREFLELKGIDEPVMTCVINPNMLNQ
T2 sequence (Q9Z286 whole entry, the tested form may be a part): as the sequence (Q9Z286 whole entry) above
T5 sequence (Q9Z286 whole entry): as above

`Nc1ncnc2c1ncn2[C@H]1CC[C@@H](CO)O1` [2′,3′-dideoxyadenosine]: in experiment [1], the “Sensitivity of sAC to P site ligand” value is given as “insensitivity”.

Regarding `Nc1ncnc2c1ncn2[C@@H]1O[C@H](COP(=O)(O)OP(=O)(O)OP(=O)(O)O)[C@@H](O)[C@H]1O` [ATP], the Michaelis-Menten constant (Km) – broadly, the substrate concentration at which the rate is half of its maximum – in experiment [2] is 1200 µM; in [3], about 100 µM; in experiment [4], about 1000 µM.

For `Nc1nc2c(ncn2[C@@H]2O[C@H](COP(=O)(O)OP(=O)(O)OP(O)(O)=S)[C@@H](O)[C@H]2O)c(=O)[nH]1` [GTPγS], the “Response of heterologously expressed sAC to stimulators of tmAC activity” value in experiment [5] was “completely insensitive”.

Turning to `O=C([O-])O.[K+]` [KHCO3], the “% Basal (adenylyl cyclase activity relative to activity in the absence of any salts)” value in [6] was found to be 412 ± 6.1%.

`N[C@@H](Cc1ccc(O)c(O)c1)C(=O)O` [L-dopa]: in experiment [7], the “Potency of sAC inhibition relative to catechol estrogens (fold less potent)” value is 1,000 fold.

Take `O=P([O-])([O-])O.[Na+].[Na+]` [Na2HPO4]: the “% Basal (adenylyl cyclase activity relative to activity in the absence of any salts)” value in experiment [6] amounted to 75 ± 2.6%.

In the case of `O=S([O-])[O-].[Na+].[Na+]` [Na2SO3], the “% Basal (adenylyl cyclase activity relative to activity in the absence of any salts)” value in experiment [6] stood at 164 ± 2.9%.

On to `O=S(=O)([O-])[O-].[Na+].[Na+]` [Na2SO4], for which, in experiment [6], the “% Basal (adenylyl cyclase activity relative to activity in the absence of any salts)” value is given as 66 ± 4.6%.

As to `[Cl-].[Na+]` [NaCl], the “% Basal (adenylyl cyclase activity relative to activity in the absence of any salts)” value in [6] is 93 ± 11.8%.

For the molecule `O=C(O)O` [NaHCO3], the “Effect on immunoprecipitated AC activity” value in experiment [8] is recorded as “stimulated”. For the same molecule, the EC50 (in general, the concentration at which the effect is half-maximal) in experiment [9] stood at 18.8 ± 1.6 mM; in [6] it was 25.4 ± 7.6 mM. Besides, the “Adenylyl cyclase activity in cellular lysates from HEK293/sACfl” value in experiment [10] (50 mM NaHCO3) is on record as “stimulated”. In addition, the “Cellular cAMP accumulation in HEK293/sACfl” value in experiment [10] (after 24 hours bicarbonate starvation) is on record as “stimulated cAMP accumulation”. Also, the “Cellular cAMP accumulation in HEK293/V” value is given as “not in vector transfected HEK293 cells” in experiment [11] and “unaffected” in experiment [11] (listed as bicarbonate). Besides, the “tmAC activity submaximally stimulated by forskolin” value in experiment [11] (with forskolin) is on record as “insensitive”. For the same molecule, in [12], the “Fold stimulation of CyaC AC activity” value is 2.5 fold. The “Fold stimulation of purified enzyme” value in [6] (0-80 mM NaHCO3, 10 mM ATP, 40 mM MgCl2) is given as “greater than seven-fold”. The “% Basal (adenylyl cyclase activity relative to activity in the absence of any salts)” value in experiment [6] came to 411 ± 5.3%.

As for `O=S([O-])O.[Na+]` [NaHSO3], the “% Basal (adenylyl cyclase activity relative to activity in the absence of any salts)” value in experiment [6] is 138 ± 4.6%.

`NCCc1ccc(O)c(O)c1` [dopamine]: the “Potency of sAC inhibition relative to catechol estrogens (fold less potent)” value in [7] is reported as 1,000 fold.

As to `NC[C@H](O)c1ccc(O)c(O)c1` [norepinephrine], the “Potency of sAC inhibition relative to catechol estrogens (fold less potent)” value in experiment [7] is 1,000 fold.

For `CC(C)CC[C@@H](O)[C@](C)(O)[C@H]1CC[C@@]2(O)C3=CC(=O)[C@@H]4C[C@@H](O)[C@@H](O)C[C@]4(C)[C@H]3CC[C@]12C` [ponasterone A], the “sAC activity in cells with ecdysone inducible sAC expression” value in experiment [13] was “dependent increase in sAC activity”.

Regarding “mammalian ortholog of yeast CAP (Cyclase Associated Protein)”, the sAC activity on co-expression in experiment [14] came to 4 fold.

B1: mammalian CAP: mammalian ortholog of yeast Cyclase Associated Protein, co-expressed with sAC (protein, UniProt Q01518 2-475, looked up)
Adenylyl cyclase-associated …: ADMQNLVERLERAVGRLEAVSHTSDMHRGYADSPSKAGAAPYVQAFDSLLAGPVAEYLKISKEIGGDVQKHAEMVHTGLKLERALLVTASQCQQPAENKLSDLLAPISEQIKEVITFREKNRGSKLFNHLSAVSESIQALGWVAMAPKPGPYVKEMNDAAMFYTNRVLKEYKDVDKKHVDWVKAYLSIWTELQAYIKEFHTTGLAWSKTGPVAKELSGLPSGPSAGSCPPPPPPCPPPPPVSTISCSYESASRSSLFAQINQGESITHALKHVSDDMKTHKNPALKAQSGPVRSGPKPFSAPKPQTSPSPKRATKKEPAVLELEGKKWRVENQENVSNLVIEDTELKQVAYIYKCVNTTLQIKGKINSITVDNCKKLGLVFDDVVGIVEIINSKDVKVQVMGKVPTISINKTDGCHAYLSKNSLDCEIVSAKSSEMNVLIPTEGGDFNEFPVPEQFKTLWNGQKLVTTVTEIAG
Take B1: the “Increase of sAC activity on co-expression” value in [15] was “approximately four-fold”.
